# Measured values published in paper PMC6609541, “Enterohepatic circulation of glucuronide metabolites of drugs in dog” (Pharmacology Research & Perspectives, 2019).
# Where “and” joins values, the source holds several entries; their conditions need not be identical. Equal entries are not always repeated. Where two headings read alike, the source gives them in different places. Marks after values point to notes of the source that are not given here.
# How the values were obtained:
# [1] = Plasma pharmacokinetics after single intravenous administration in bile duct cannulated (BDC) and intact beagle dogs; type: in vivo, beagle dog; settings: for EHC / AUC(0-inf) / half-life / clearance / AUC / Vd: dog; for EHC: enterohepatic circulation; for AUC(0-inf) / half-life / clearance / AUC / Vd: male, beagle, plasma, iv; for clearance: plasma clearance; for AUC: mean ± SD n=4, read-out: AUC0‐48 hr
# Method: Male beagle dogs were obtained from Charles River Laboratories Inc (Wilmington, MA). Pharmacokinetic (PK) studies in intact dogs were conducted at Covance (Greenfield, IN), while bile duct cannulation surgery and PK studies were conducted in these dogs at Covance (Madison, WI). Dogs (weight: 9‐12 kg), were acclimated prior to study initiation according to Standard Operating Procedures (Covance). All intravenous compound administration was by an intravenous catheter implanted in the cephalic vein. Access to food and water was allowed ad libitum. All animal procedures were approved by the Institutional Animal Care and Use Committee at Covance. Replacement bile was not administered during the study since collection of bile was scheduled for a period of 48 hours, replacement is typically administered for studies lasting more than 60 hours.
# (§1) Canagliflozin and DPTQ, both at 0.5 mg/kg, were administered intravenously in 25 mmol/L phosphate buffer (pH 8) containing 10% dimethylacetamide (v/v), 15% ethanol (v/v) via a cephalic vein. Total volume administered was 1 mL/kg. Dogs were housed in stainless steel metabolic cages during the study. Serial blood samples were collected from the jugular vein at 0.08, 0.25, 0.5, 1, 2, 4, 8, 12, 24, 36 and 48‐hours post‐dose with collection tubes containing anticoagulant K3‐EDTA. Plasma was obtained by centrifugation at 1600g for 10 minutes. Cumulative urine samples were collected between 0‐12, 12‐24, 24‐36 and 36‐48 hours and feces were collected between 0‐24 and 24‐48 hours in both intact and BDC dogs. Bile samples were collected between 0‐12, 12‐24, 24‐36, 36‐48 hours in BDC dogs. The weights of all samples except blood and plasma were recorded. All the samples were stored at −70°C until analysis by liquid chromatography tandem‐mass spectrometry (LC‐MS/MS) was performed.
# Noncompartmental pharmacokinetic parameters were calculated using Watson version 7.4 (Thermo Scientific, Waltham, MA). Statistical significance of differences for pharmacokinetic parameters between two groups was examined with Student's t test using Sigmaplot 12.5 (Systat Software Inc, San Jose, CA).
# (§2) Canagliflozin and DPTQ in plasma, bile, urine and feces were quantified using LC‐MS/MS. All samples plasma, urine and bile) were mixed with an organic internal standard solution essentially described previously,15 to precipitate protein and centrifuged, and the resulting supernatants were analyzed using AB Sciex API 4000 quadrupole mass spectrometer (Applied Biosystems, Foster City, CA) equipped with a TurboIonSpray interface. The feces samples were homogenized in MeOH:H2O (1:1) and shaken vigorously to obtain slurry. The homogenates then went through the sample extraction along with other matrices. The blank plasma, urine, bile and feces was spiked with internal standard for calibration curve. The pumps were Shimadzu LC‐10AD units with a SCL‐10A controller (Kyoto, Japan), and a Z‐215 liquid handler (Gilson, Middleton, WI) was used as the autosampler. All compounds were chromatographically separated using a Betasil javelin C18 20 × 2.1‐mm 5‐μm HPLC column (Thermo Fisher Scientific, Waltham, MA). The mobile phase consisted of solvent A (1 mmol/L ammonium bicarbonate in water) and solvent B (1 mmol/L ammonium bicarbonate in methanol). Drugs and metabolites were detected in positive ion mode, using selected ion mode: canagliflozin 462.2 → 191.1 m/z, DPTQ 436.2 → 158.9 m/z, and DPTQ‐O‐glucuronide 612.2 → 418.1.
# [2] = Recovery of parent drug and glucuronide metabolites in urine, bile and feces of BDC and intact dogs; type: in vivo, beagle dog; settings: for % dose in feces, Parent / % dose in bile, Parent / % dose in urine, Parent / renal excretion of parent drug: 0.5 mg/kg IV; for % dose in feces, Parent / % dose in bile, Parent / % dose in urine, Parent: over 48 hours; for % dose in bile, Parent: 0.5 mg/kg; for renal excretion of parent drug: dog (BDC and intact); for Biliary excretion % of glucuronide / Urinary excretion % of glucuronide: dog; for Biliary excretion % of glucuronide: BDC; for Urinary excretion % of glucuronide: BDC and/or intact
# Method: as §1
# Aliquots of plasma, urine, bile or feces homogenate (50 µL) were incubated with equal volume of 0.2 mol/L sodium acetate buffer (pH 5.0), and 15 μL of β‐glucuronidase (>85 000 units/mL) in a 37°C water bath overnight. The samples were extracted for LC‐MS/MS after the hydrolysis was performed. […] The concentration of O‐glucuronides was determined by subtracting the concentration from the aliquot without treatment of β‐glucuronidase from the one with enzyme treatment.
# as §2
# [3] = tested on: cryopreserved dog hepatocytes; assay: Hepatocyte metabolite profile with and without ABT (dog); type: in vitro ADME; settings: 4 h, 2 μmol/L
# Method: Cryopreserved dog and human hepatocytes were obtained from BioreclamationIVT (Baltimore, MD). […] A stock solution of canagliflozin and DTPQ was added to medium to give a final incubation concentration of 2 μmol/L. The incubations including the media and cells were quenched after 4 hours with an equal volume of acetonitrile containing 200 ng/mL niflumic acid as internal standard. Samples were centrifuged at 3500 g for 10 minutes and the supernatant was analyzed by liquid chromatography coupled to a diode array UV detection and mass spectrometry system consisting of the Acquity ultra‐performance liquid chromatography column, Synapt G2‐S mass spectrometer, and an ultra‐performance liquid chromatography photodiode array detector (Waters, Milford, MA). The chromatographic separation of metabolites was achieved on a Waters 1.7‐μm Acquity BEH C18 (100 × 2.1 mm) column maintained at 60°C. The mobile phase consisted of solvent A (0.2% formic acid in water for DPTQ and 10 mmol/L ammonium acetate in water for canagliflozin) and solvent B (100% acetonitrile). The samples were eluted, at a flow rate of 0.5 mL/min with a gradient for 5 minutes. The LC/MS full scan data were processed by Metabolynx (Waters, Milford, MA) to identify metabolites. Product ion spectra were acquired to confirm the metabolites. The mass spectrometer was operated in positive ion mode with an electrospray ionization source. The parameters for the chamber were: capillary 1.0 kV, sample cone 50 V, source temperature 120°C, desolvation 500°C, and collision energy 25 V. The peak areas for parent, metabolite and internal standard were integrated to allow for comparison between conditions.
# [4] = biological target: T1, human wild‐type P‐gp (Homo sapiens, UniProt P08183); assay: Bi‐directional transport across MDCKII cells expressing human P‐gp; type: in vitro ADME; set-up: key to Pgp substrate: S, substrate; NS, non‐substrate; settings: for PappA‐B / PappB‐A: 5 µmol/L compound; for P‐gp substrate: P‐gp‐transfected MDCKII cells; for P‐gp substrate / MDCK permeability (passive membrane permeability): in words; for Pgp substrate: classified from net efflux ratio (NER >3.0 = substrate); for Net efflux ratio: uninhibited ratio divided by inhibited ratio, NER >3.0 = P‐gp substrate
# T1 construct: host or cells: MDCKII
# T1 sequence (P08183 whole entry): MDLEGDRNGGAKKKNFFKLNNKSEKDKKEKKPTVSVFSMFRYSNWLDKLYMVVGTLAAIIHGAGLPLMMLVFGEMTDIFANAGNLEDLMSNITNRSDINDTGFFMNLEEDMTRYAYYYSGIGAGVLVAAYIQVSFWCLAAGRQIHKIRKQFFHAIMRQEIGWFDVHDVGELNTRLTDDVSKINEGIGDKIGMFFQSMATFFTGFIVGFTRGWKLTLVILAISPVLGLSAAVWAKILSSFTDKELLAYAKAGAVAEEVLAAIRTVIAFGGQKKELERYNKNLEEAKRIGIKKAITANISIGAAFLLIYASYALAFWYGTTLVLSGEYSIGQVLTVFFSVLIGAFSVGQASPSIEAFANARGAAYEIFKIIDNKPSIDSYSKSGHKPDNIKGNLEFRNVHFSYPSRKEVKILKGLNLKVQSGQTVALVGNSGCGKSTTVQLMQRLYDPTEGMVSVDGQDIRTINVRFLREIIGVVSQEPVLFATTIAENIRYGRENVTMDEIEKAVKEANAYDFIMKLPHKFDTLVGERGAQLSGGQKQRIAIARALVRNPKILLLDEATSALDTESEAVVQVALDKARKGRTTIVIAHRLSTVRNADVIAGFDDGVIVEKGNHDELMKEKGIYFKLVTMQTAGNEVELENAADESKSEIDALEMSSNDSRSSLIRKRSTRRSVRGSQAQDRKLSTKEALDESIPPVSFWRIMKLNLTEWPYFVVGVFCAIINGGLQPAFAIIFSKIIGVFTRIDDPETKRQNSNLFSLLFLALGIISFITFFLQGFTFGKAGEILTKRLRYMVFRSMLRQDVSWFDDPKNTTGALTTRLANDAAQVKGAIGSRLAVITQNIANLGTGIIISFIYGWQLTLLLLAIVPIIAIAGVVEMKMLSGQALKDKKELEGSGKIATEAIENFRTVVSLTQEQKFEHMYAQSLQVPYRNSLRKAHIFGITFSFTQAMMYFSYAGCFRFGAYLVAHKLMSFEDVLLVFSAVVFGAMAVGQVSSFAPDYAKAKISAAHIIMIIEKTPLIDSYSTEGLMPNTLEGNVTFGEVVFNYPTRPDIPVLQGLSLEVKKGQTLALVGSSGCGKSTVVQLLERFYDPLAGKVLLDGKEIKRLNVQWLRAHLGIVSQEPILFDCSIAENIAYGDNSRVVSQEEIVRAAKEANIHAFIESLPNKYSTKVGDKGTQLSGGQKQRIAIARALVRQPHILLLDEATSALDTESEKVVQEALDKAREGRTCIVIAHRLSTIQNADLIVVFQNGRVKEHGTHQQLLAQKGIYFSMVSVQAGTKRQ
# Method: MDCKII cells stably expressing human wild‐type P‐gp were obtained from the Netherlands Cancer Institute Amsterdam, The Netherlands). MDCK cells were maintained and the assay was conducted essentially as described previously.12, 13 Transport was measured in both directions across uninhibited and inhibited cell monolayers using a substrate concentration of 5 μmol/L diluted from a 10 mmol/L DMSO stock solution final DMSO concentration of 0.05%) and a single 60‐min time interval.
# [5] = 0.5 mg/kg, BDC dog, 0.5 mg/kg IV bolus
# [6] = 0.5 mg/kg, BDC dog, 0.5 mg/kg IV bolus, read-out: V dss
# [7] = 0.5 mg/kg, intact dog, 0.5 mg/kg IV bolus
# [8] = MDR1‐MDCKII_inhibitor (2.5 µmol/L P‐gp inhibitor LSN335984)
SMILES,EHC [1],"AUC(0-inf) [1, 5] [µM·h]","half-life [1, 5] [h]","clearance [1, 5] [mL/min/kg]","AUC [1, 5] [µM·h]","Vd [1, 6] [L/kg]","AUC [1, 7] [µM·h]","% dose in feces, Parent ([2]; BDC dog) [% dose]","% dose in bile, Parent ([2]; BDC dog)",renal excretion of parent drug [2],Biliary excretion % of glucuronide [2],Urinary excretion % of glucuronide [2],"% dose in feces, Parent ([2]; intact dog)","% dose in urine, Parent ([2]; intact dog) [% dose]",Peak area (+ABT) [3],Peak area (‐ABT) [3],PappB‐A/PappA‐B ([4]; MDR1‐MDCKII_control),PappA‐B ([4]; MDR1‐MDCKII_control),PappB‐A ([4]; MDR1‐MDCKII_control),PappB‐A/PappA‐B ([4]; MDR1‐MDCKII_inhibitor),other results
Cc1ccc([C@@H]2O[C@H](CO)[C@@H](O)[C@H](O)[C@H]2O)cc1Cc1ccc(-c2ccc(F)cc2)s1 [Canagliflozin],No,16.4 ± 5.9,10.9 ± 1.8,1.32 ± 0.5,15.7 ± 5.4,0.87 ± 0.28,20.7 ± 3.7,3.3 ± 0.7,4.66 ± 1.4 % dose,< 1 % of dose,Low (Low 0%‐30%),Low (Low 0%‐30%),2.25 ± 1.3 % dose,0.27 ± 0.15,8448,7808,22,4.0 ± 1.8 10^–6cm/s,89.2 ± 8.2 10^–6cm/s,1.3,"AUC(0-inf) [1, 7]: 21.2 ± 3.9 µM·h; half-life [1, 7]: 8.05 ± 0.62 h; clearance [1, 7]: 0.93 ± 0.18 mL/min/kg; Vd ([1]; 0.5 mg/kg, intact dog, 0.5 mg/kg IV bolus, read-out: V dss): 0.72 ± 0.13 L/kg; % dose in urine, Parent ([2]; BDC dog, ND = below quantitative limit 1 ng/mL): 0.05 ± 0.08 % dose; % dose in bile, Parent ([2]; BDC dog, listed as canagliflozin): 4.66 % dose; PappA‐B [4, 8]: 10.8 ± 1.4 10^–6cm/s; PappB‐A [4, 8]: 14.1 ± 0.1 10^–6cm/s; P‐gp substrate [4]: yes; P‐gp substrate ([4]; listed as canagliflozin): P‐gp substrate; Pgp substrate [4]: S; MDCK permeability (passive membrane permeability) [4]: Moderate; MDCK permeability (passive membrane permeability) ([4]; listed as canagliflozin): moderate; Net efflux ratio [4]: 17.1; Net efflux ratio ([4]; listed as canagliflozin): > 3"
"C[C@H]1c2cccc(CC(C)(C)O)c2C[C@H](CO)N1C(=O)Cc1c(Cl)cccc1Cl [DPTQ, 2‐(2,6‐dichlorophenyl)‐1‐((1S,3R)‐5‐(2‐hydroxy‐2‐methylpropyl)‐3‐(hydroxymethyl)‐1‐methyl‐3,4‐dihydroisoquinolin‐2(1H)‐yl)ethan‐1‐one]",Yes,5.89 ± 3.3,2.5 ± 2.3,4.43 ± 3.1,5.89 ± 3.3,0.33 ± 0.07,7.94 ± 2.5,2.48 ± 4.8,8.91 % dose and 8.91 ± 8.9 % dose,< 1 % of dose,Moderate (moderate 30%‐70%),Low (Low 0%‐30%),13.5 ± 5.8 ^a % dose,0.64 ± 1.1,244,33,1.5,43.0 ± 4.5 10^–6cm/s,62.6 ± 2.6 10^–6cm/s,1.1,"CL0‐48 h ([1]; intact dog, 0.5 mg/kg IV bolus, AUCinf not extrapolated, CL from AUC0‐48 hours, 0.5 mg/kg): 2.73 mL/min/kg and 2.73 ± 1.2 mL/min/kg; Vd ([1]; 0.5 mg/kg, intact dog, 0.5 mg/kg IV bolus, AUCinf not extrapolated, read-out: V dss 0‐48 hr): 1.48 ± 0.25 L/kg; PappA‐B [4, 8]: 48.9 ± 5.9 10^–6cm/s; PappB‐A [4, 8]: 53.5 ± 0.4 10^–6cm/s; P‐gp substrate [4]: not a P‐gp substrate and no; Pgp substrate [4]: NS; MDCK permeability (passive membrane permeability) [4]: high and High"
